# System: anesthetized open-chest dogs
# Test: Hemodynamics of anesthetized open-chest dogs, intravenous infusion
# Format: in vivo, mongrel dogs
# Details: 0.3 mg/kg iv
# Procedure: The animals were anesthetized by intravenous injection of 30 mg/kg sodium pentobarbital, tracheally intubated, and mechanically ventilated with positive air pressure. Left thoracotomy was performed through the fourth intercostal space and the heart was suspended in a pericardial cradle, the aortic root was isolated and a probe of blood flow meter (12 or 14 mm in diameter) was fixed to measure the aortic blood flow as a representation of cardiac output (CO), the circumflex branch of left coronary artery was isolated and a probe of blood flow meter (2 or 2.5 mm in diameter) was fixed to measure the coronary blood flow (CBF). A polyethylene catheter filled with heparin physiological saline was inserted through cardiac apex into the left ventricle to measure the left ventricular pressure (LVP) and left ventricular end-diastolic pressure (LVEDP), Peak positive and peak negative first derivatives of the LVP (+ LVdp/dt and − LVdp/dt) were calculated with the Acknowledge software. The systolic blood pressure (SBP), diastolic blood pressure (DBP) and mean arterial pressure (MAP) were measured by polyethylene catheter via the femoral artery, ECG □ was measured by a AC-601G ECG amplifier. The above-mentioned analog signal was input into a data acquisition workstation (MP100, BIOPAC Systems, USA) to a computer running Acknowledge (version 3.7.1).
# After surgery, various indexes before administration were recorded until the indexes were stable, and then intravenous infusion administration was conducted. Thirty dogs were divided into five groups (six dogs in each group), the experiment groups were given 0.15, 0.3, 0.6 mg/kg of ASP-[…] respectively, the normal control group was given 1 ml/kg of solvent, and the positive control group was given 0.3 mg/kg of astragaloside IV. The delivery volumes were 15 ml for each dog was and the delivery velocity was 1 ml/min. The indexes were recorded at 5, 10, 15, 20, 30, 45, 60, 90 and 120 mins after drug administration. At the end of experiment, the hearts were excised and weighted. The myocardial blood flow for per hectogram (CF), coronary resistance (CR), cardiac index (CI), left ventricular work (LVW) and total peripheral resistance (TPR) were calculated according to the following formulae: CF=CBF×[…]/heart weight CR=MAP/CF CI=CO/0.11×(body weight)^2/3 LVW=CO×(MAP−5)×1.052×0.0136 TPR=MAP×79.92/CO
# Data are expressed as mean±SD ( x±s), the paired t-test was used to compare the significance between before and after administration, the unpaired t-test was adopted for comparison between groups.
smiles,measurement,setting,value
"CC(C)(O)[C@@H]1CC[C@](C)([C@H]2[C@@H](O)C[C@@]3(C)[C@@H]4C[C@H](O[C@@H]5O[C@H](CO)[C@@H](O)[C@H](O)[C@H]5O)[C@H]5C(C)(C)[C@@H](O[C@@H]6OC[C@@H](O)[C@H](O)[C@H]6O)CC[C@@]56C[C@@]46CC[C@]23C)O1 [astragaloside IV, reference compound]",TPR,30 min after administration,5430 ± 1302 dyn · s/cm^5
same,TPR change vs before administration,30 min after administration,(206 ± 718) dyn · s/cm^5
same,dp/dt,30 min after administration,1140 ± 92 mmHg/s
same,dp/dt change vs before administration,30 min after administration,(85 ± 84) mmHg/s
same,−dp/dt,30 min after administration,−807 ± 124 mmHg/s
same,−dp/dt change vs before administration,30 min after administration,(28 ± 160) mmHg/s
same,CF,45 min after administration,54.0 ± 15.0 ml/min/100 g
same,CF change vs before administration,45 min after administration,(−2.9 ± 7.7) ml/min/100 g
same,CI,45 min after administration,2.08 ± 0.52 L/min/m^2
same,CI change vs before administration,45 min after administration,(−0.06 ± 0.19) L/min/m^2
same,CO,45 min after administration,1.17 ± 0.32 L/min
same,CO change vs before administration,45 min after administration,(−0.03 ± 0.10) L/min
same,CR,45 min after administration,1.44 ± 0.50 mmHg/ml/min/100 g
same,CR change vs before administration,45 min after administration,(0.04 ± 0.25) mmHg/ml/min/100 g
same,LVEDP,45 min after administration,0.9 ± 2.1 mmHg
same,LVEDP change vs before administration,45 min after administration,(−1.55 ± 1.42) mmHg
same,LVP,45 min after administration,98 ± 10 mmHg
same,LVP change vs before administration,45 min after administration,(−4.5 ± 11.7) mmHg
same,LVW,45 min after administration,1.14 ± 0.40 kg · m
same,LVW change vs before administration,45 min after administration,(−0.07 ± 0.11) kg · m
same,TPR,45 min after administration,5301 ± 1638 dyn · s/cm^5
same,TPR change vs before administration,45 min after administration,(77 ± 552) dyn · s/cm^5
same,dp/dt,45 min after administration,1124 ± 163 mmHg/s
same,dp/dt change vs before administration,45 min after administration,(69 ± 73) mmHg/s
same,−dp/dt,45 min after administration,−809 ± 137 mmHg/s
same,−dp/dt change vs before administration,45 min after administration,(26 ± 159) mmHg/s
same,CF,60 min after administration,53.7 ± 18.1 ml/min/100 g
same,CF change vs before administration,60 min after administration,(−3.3 ± 5.1) ml/min/100 g
same,CI,60 min after administration,2.10 ± 0.53 L/min/m^2
same,CI change vs before administration,60 min after administration,(−0.05 ± 0.11) L/min/m^2
same,CO,60 min after administration,1.18 ± 0.34 L/min
same,CO change vs before administration,60 min after administration,(−0.02 ± 0.06) L/min
same,CR,60 min after administration,1.51 ± 0.64 mmHg/ml/min/100 g
same,CR change vs before administration,60 min after administration,(0.10 ± 0.23) mmHg/ml/min/100 g
same,LVEDP,60 min after administration,0.8 ± 1.7 mmHg
same,LVEDP change vs before administration,60 min after administration,(−1.57 ± 1.39) mmHg
same,LVP,60 min after administration,98 ± 11 mmHg
same,LVP change vs before administration,60 min after administration,(−5.3 ± 15.3) mmHg
same,LVW,60 min after administration,1.16 ± 0.47 kg · m
same,LVW change vs before administration,60 min after administration,(−0.05 ± 0.09) kg · m
same,TPR,60 min after administration,5278 ± 1714 dyn · s/cm^5
same,TPR change vs before administration,60 min after administration,(54 ± 458) dyn · s/cm^5
same,dp/dt,60 min after administration,1098 ± 192 mmHg/s
same,dp/dt change vs before administration,60 min after administration,(43 ± 77) mmHg/s
same,−dp/dt,60 min after administration,−788 ± 126 mmHg/s
same,−dp/dt change vs before administration,60 min after administration,(48 ± 177) mmHg/s
same,CF,90 min after administration,57.4 ± 19.0 ml/min/100 g
same,CF change vs before administration,90 min after administration,(0.4 ± 9.5) ml/min/100 g
same,CI,90 min after administration,2.15 ± 0.52 L/min/m^2
same,CI change vs before administration,90 min after administration,(0.01 ± 0.08) L/min/m^2
same,CO,90 min after administration,1.21 ± 0.32 L/min
same,CO change vs before administration,90 min after administration,(0.00 ± 0.05) L/min
same,CR,90 min after administration,1.43 ± 0.83 mmHg/ml/min/100 g
same,CR change vs before administration,90 min after administration,(0.02 ± 0.51) mmHg/ml/min/100 g
same,LVEDP,90 min after administration,1.4 ± 0.5 mmHg
same,LVEDP change vs before administration,90 min after administration,(−0.97 ± 0.77) mmHg
same,LVP,90 min after administration,99 ± 15 mmHg
same,LVP change vs before administration,90 min after administration,(−4.2 ± 18.7) mmHg
same,LVW,90 min after administration,1.14 ± 0.44 kg · m
same,LVW change vs before administration,90 min after administration,(−0.07 ± 0.08) kg · m
same,TPR,90 min after administration,4952 ± 1517 dyn · s/cm^5
same,TPR change vs before administration,90 min after administration,(−272 ± 349) dyn · s/cm^5
same,dp/dt,90 min after administration,1100 ± 160 mmHg/s
same,dp/dt change vs before administration,90 min after administration,(45 ± 73) mmHg/s
same,−dp/dt,90 min after administration,−762 ± 139 mmHg/s
same,−dp/dt change vs before administration,90 min after administration,(74 ± 184) mmHg/s
same,CF,120 min after administration,55.6 ± 19.7 ml/min/100 g
same,CF change vs before administration,120 min after administration,(−1.4 ± 11.1) ml/min/100 g
same,CI,120 min after administration,2.14 ± 0.50 L/min/m^2
same,CI change vs before administration,120 min after administration,(0.00 ± 0.06) L/min/m^2
same,CO,120 min after administration,1.20 ± 0.30 L/min
same,CO change vs before administration,120 min after administration,(0.00 ± 0.03) L/min
same,CR,120 min after administration,1.51 ± 0.82 mmHg/ml/min/100 g
same,CR change vs before administration,120 min after administration,(0.11 ± 0.41) mmHg/ml/min/100 g
same,LVEDP,120 min after administration,1.8 ± 0.8 mmHg
same,LVEDP change vs before administration,120 min after administration,(−0.66 ± 0.47) mmHg
same,LVP,120 min after administration,97 ± 14 mmHg
same,LVP change vs before administration,120 min after administration,(−5.5 ± 19.3) mmHg
same,LVW,120 min after administration,1.17 ± 0.45 kg · m
same,LVW change vs before administration,120 min after administration,(−0.04 ± 0.05) kg · m
same,TPR,120 min after administration,5046 ± 1440 dyn · s/cm^5
same,TPR change vs before administration,120 min after administration,(−178 ± 394) dyn · s/cm^5
same,dp/dt,120 min after administration,1088 ± 182 mmHg/s
same,dp/dt change vs before administration,120 min after administration,(33 ± 59) mmHg/s
same,−dp/dt,120 min after administration,−748 ± 167 mmHg/s
same,−dp/dt change vs before administration,120 min after administration,(88 ± 215) mmHg/s
same,CF,before administration,57 ± 16.1 ml/min/100 g
same,CI,before administration,2.14 ± 0.52 L/min/m^2
same,CO,before administration,1.20 ± 0.32 L/min
same,CR,before administration,1.40 ± 0.49 mmHg/ml/min/100 g
same,LVEDP,before administration,2.4 ± 1.1 mmHg
same,LVP,before administration,103 ± 12 mmHg
same,LVW,before administration,1.21 ± 0.44 kg · m
same,TPR,before administration,5224 ± 1465 dyn · s/cm^5
same,dp/dt,before administration,1055 ± 157 mmHg/s
same,−dp/dt,before administration,−836 ± 194 mmHg/s
same,Heart rate,vs pre-administration,decreased slightly
same,blood pressure,vs pre-administration,no significant change
same,CF and CR,within 120 min,no significant changes

# Reference: patent US8835134B2, “Cycloastragenol monoglucoside, preparation, pharmaceutical composition and application thereof” (Tianjin Institute of Pharmaceutical Research, priority 2007, dated 2014)
